Converted amounts (≈) assume the structure as drawn. “And” between values parts separate entries of the source, which are not always exact repeats. Equal values may be shown once. Read-outs that look alike come from different tables or passages of the source.
Experiments:
Format in all cases: cell-based
[1] = tested on: Enterococcus faecalis ATCC 11420; test: Broth dilution MIC/MBC, reference strain
Protocol: (§1) The tests were carried out using a serial dilution method, allowing the determination of MIC (minimal concentration inhibiting bacterial growth), MBC (minimal bactericidal concentration), and MFC (minimal fungicidal concentration) values.
(§2) Antimicrobial activity was tested using the following reference strains: Staphylococcus aureus ATCC 6538 (MSSA), Staphylococcus aureus ATCC 43300 (MRSA), Staphylococcus epidermidis PCM 2118, Escherichia coli ATCC 11229, Pseudomonas aeruginosa ATCC 15442, Proteus vulgaris NCTC 4635, Enterococcus faecalis ATCC 11420, and Candida albicans ATCC 10231.
(§3) A broth dilution method was used to determine minimal inhibitory concentration (MIC) for tested compounds as recommended by Clinical Laboratory Standards Institute (CLSI) guidelines. Investigated compounds were diluted in Mueller Hinton Broth 2 (Sigma-Aldrich Co., St. Louis, MO, USA) in polypropylene 96-well plates and initial inoculum 5 × 10^5 cfu/mL were incubated at 37 °C for 18 h. MIC was taken as the lowest drug concentration at which an observable growth was inhibited. […] The loopful (10 µL) of the tested sample was transferred to Tryptic Soy Agar (TSA, Becton-Dickinson, Franklin Lakes, NJ, USA) and incubated at 37 °C for 48 h. […] Drug Solutions were made fresh on the day of the assay. All experiments were performed in triplicate.

[2] = tested on: Escherichia coli ATCC 11229; test: Broth dilution MIC/MBC, reference strain
Protocol: as §1, §2, §3

[3] = tested on: Proteus vulgaris NCTC 4635; test: Broth dilution MIC/MBC, reference strain
Protocol: as §1, §2, §3

[4] = tested on: Pseudomonas aeruginosa ATCC 15442; test: Broth dilution MIC/MBC, reference strain
Protocol: as §1, §2, §3

[5] = tested on: Staphylococcus aureus ATCC 43300 (MRSA); test: Broth dilution MIC/MBC, reference strain
Protocol: as §1, §2, §3

[6] = tested on: Staphylococcus aureus ATCC 6538 (MSSA); test: Broth dilution MIC/MBC, reference strain
Protocol: as §1, §2, §3

[7] = tested on: Staphylococcus epidermidis PCM 2118; test: Broth dilution MIC/MBC, reference strain
Protocol: as §1, §2, §3

S.aureus 50 (MRSA) = test: Broth dilution MIC/MBC, clinical MRSA isolate; conditions: Staphylococcus aureus, clinical MRSA S.aureus 50
From the text: (§4) […]. Both MRSA and MSSA strains were derived from various human infections.
(§5) […]. Five methicillin-resistant S. aureus strains were isolated from nose (n = 1), bronchoalveolar lavage (n = 1), sputum (n = 1), wound (n = 1), and blood (n = 1); five methicillin-susceptible S. aureus strains were isolated from throat (n = 1), bronchoalveolar lavage (n = 1), sputum (n = 1), abscess (n = 1), and blood (n = 1).
(§6) The identity of S. aureus isolates was confirmed with conventional methods and with Pastorex Staph-Plus latex agglutination kit (Bio-Rad, Marnes-la-Coquette, France) and verified applying the polymerase chain reaction (PCR) of S. aureus-specific region of the thermonuclease gene, nuc. Resistance to methicillin was first verified using cefoxitin disk (30 µg), and then, identified based on the presence of mecA gene. S. aureus ATCC®25923 (methicillin-susceptible) and S. aureus ATCC®43300 (MDR) were applied as the reference strains. Both the reference and clinical strains were stored at −80 °C, in Tryptic Soy Broth (TSB, Becton-Dickinson, Franklin Lakes, NJ, USA) supplemented with 15% glycerol.
as §3

S.aureus 51 (MRSA) = test: Broth dilution MIC/MBC, clinical MRSA isolate; conditions: Staphylococcus aureus, clinical MRSA S.aureus 51
From the text: as §4, §5, §6, §3

S.aureus 52 (MRSA) = test: Broth dilution MIC/MBC, clinical MRSA isolate; conditions: Staphylococcus aureus, clinical MRSA S.aureus 52
From the text: as §4, §5, §6, §3

S.aureus 53 (MRSA) = test: Broth dilution MIC/MBC, clinical MRSA isolate; conditions: Staphylococcus aureus, clinical MRSA S.aureus 53
From the text: as §4, §5, §6, §3

S.aureus 54 (MRSA) = test: Broth dilution MIC/MBC, clinical MRSA isolate; conditions: Staphylococcus aureus, clinical MRSA S.aureus 54
From the text: as §4, §5, §6, §3

S.aureus 56 (MSSA) = test: Broth dilution MIC/MBC, clinical MSSA isolate; conditions: Staphylococcus aureus, clinical MSSA S.aureus 56
From the text: as §4, §5, §6, §3

S.aureus 59 (MSSA) = test: Broth dilution MIC/MBC, clinical MSSA isolate; conditions: Staphylococcus aureus, clinical MSSA S.aureus 59
From the text: as §4, §5, §6, §3

[8] = tested on: HaCaT cell line (human keratinocyte); test: MTT cell viability assay; conditions: MTT assay, 72 h incubation, mean ± SD, read-out: IC50 HaCaT
[9] = tested on: Gram-positive reference strains; test: Broth dilution MIC/MBC, summary over Gram-positive reference strains; conditions: summary over the Gram-positive reference strains (Table 1)
Protocol: […]. The tests were carried out using a serial dilution method, allowing the determination of MIC (minimal concentration inhibiting bacterial growth), MBC (minimal bactericidal concentration), and MFC (minimal fungicidal concentration) values.
as §2, §3

MBC/MIC ([1]; E. f. ATCC 11420): 8
MIC ([1]; Enterococcus faecalis, ATCC11420, E. faecalis ATCC 11420, read-out: MIC): 8 µg/mL (≈ 15 µM)
MBC/MIC ([2]; E. c. ATCC 11229): >1
MIC ([2]; Escherichia coli, ATCC11229, E. coli ATCC 11229, read-out: MIC): 128 µg/mL (≈ 240 µM)
MBC/MIC ([3]; P. v. NCTC 4635): >1
MIC ([3]; Proteus vulgaris, NCTC4635, P. vulgaris NCTC 4635, read-out: MIC): 128 µg/mL (≈ 240 µM)
MBC/MIC ([4]; P. a. ATCC 15442): >1
MIC ([4]; Pseudomonas aeruginosa, ATCC15442, P. aeruginosa ATCC 15442, read-out: MIC): 128 µg/mL (≈ 240 µM)
MBC/MIC ([5]; S. a. ATCC 43300): 2
MIC ([5]; Staphylococcus aureus, S. aureus ATCC 43300, read-out: MIC): 8 µg/mL (≈ 15 µM)
MBC/MIC ([6]; S. a. ATCC 6538): 8
MIC ([6]; Staphylococcus aureus, S. aureus ATCC 6538, read-out: MIC): 8 µg/mL (≈ 15 µM)
MBC/MIC ([7]; S. e. PCM 2118): 1
MIC ([7]; Staphylococcus epidermidis, PCM2118, S. epidermidis PCM 2118, read-out: MIC): 8 µg/mL (≈ 15 µM)
MIC (S.aureus 50 (MRSA); read-out: MIC): 4 µg/mL (≈ 7.49 µM)
MIC (S.aureus 51 (MRSA); read-out: MIC): 4 µg/mL (≈ 7.49 µM)
MIC (S.aureus 52 (MRSA); read-out: MIC): 4 µg/mL (≈ 7.49 µM)
MIC (S.aureus 53 (MRSA); read-out: MIC): 4 µg/mL (≈ 7.49 µM)
MIC (S.aureus 54 (MRSA); read-out: MIC): 4 µg/mL (≈ 7.49 µM)
MIC (S.aureus 56 (MSSA); read-out: MIC): 4 µg/mL (≈ 7.49 µM)
MIC (S.aureus 59 (MSSA); read-out: MIC): 4 µg/mL (≈ 7.49 µM)
MIC [9]: 8 µg/mL (≈ 15 µM)
MIC ([9]; read-out: MIC): 8 µg/mL (≈ 15 µM)
SMILES: Cc1cc(S(=O)(=O)NC(=O)CCC2CCCCC2)c(SCc2cccc(C(F)(F)F)c2)cc1Cl [Compound 10, N-[4-Chloro-5-methyl-2-(3-trifluoromethylbenzylthio)benzenesulfonyl]-3-cyclohexylpropanamide]
MBC ([1]; Enterococcus faecalis, ATCC11420, E. faecalis ATCC 11420, read-out: MBC): 64 µg/mL (≈ 120 µM)
MBC ([2]; Escherichia coli, ATCC11229, E. coli ATCC 11229, read-out: MBC): > 128 µg/mL
MBC ([3]; Proteus vulgaris, NCTC4635, P. vulgaris NCTC 4635, read-out: MBC): > 128 µg/mL
MBC ([4]; Pseudomonas aeruginosa, ATCC15442, P. aeruginosa ATCC 15442, read-out: MBC): > 128 µg/mL
MBC ([5]; Staphylococcus aureus, S. aureus ATCC 43300, read-out: MBC): 16 µg/mL (≈ 30 µM)
MBC ([6]; Staphylococcus aureus, S. aureus ATCC 6538, read-out: MBC): 64 µg/mL (≈ 120 µM)
MBC ([7]; S. epidermidis PCM 2118): 8 µg/mL (≈ 15 µM)
MBC ([7]; Staphylococcus epidermidis, PCM2118, S. epidermidis PCM 2118, read-out: MBC): 4 to 16 µg/mL (≈ 7.49 to 30 µM)
MBC (S.aureus 50 (MRSA); read-out: MBC): > 128 µg/mL
MBC (S.aureus 51 (MRSA); read-out: MBC): > 128 µg/mL
MBC (S.aureus 52 (MRSA); read-out: MBC): > 128 µg/mL
MBC (S.aureus 53 (MRSA); read-out: MBC): > 128 µg/mL
MBC (S.aureus 54 (MRSA); read-out: MBC): > 128 µg/mL
MBC (S.aureus 56 (MSSA); read-out: MBC): > 128 µg/mL
MBC (S.aureus 59 (MSSA); read-out: MBC): > 128 µg/mL
IC50 [8]: 95 µg/mL and 178 µM
MBC [9]: 8 to 64 µg/mL
MBC ([9]; read-out: MBC): 8 to 64 µg/mL (≈ 15 to 120 µM)
